The values that follow come from patent US20120220564A1, “SELECTIVE CALCIUM CHANNEL MODULATORS” (Zalicus Pharmaceuticals Ltd., priority 2009, published 2012).

Each structure is given as a SMILES string.

One experiment concerns the target T1, α1G (CaV 3.1) (Homo sapiens, UniProt O43497).
T1 construct: expressed in transfected cells; host or cells: HEK 293
Put plainly: T-type calcium channel block, whole cell patch clamp. The note with it: HEK cells, mainly non-inactivated protocol; values above 10,000 nM represented as 10000. Type of experiment: cell-based. On the procedure: (§1) T-type calcium channel blocking activity was assayed in human embryonic kidney cells, HEK 293 (Invitrogen), stably transfected with the T-type calcium channel subunits. Briefly, cells were cultured in Dulbecco's modified eagle medium (DMEM) supplemented with 10% fetal bovine serum, 200 U/ml penicillin, and 0.2 mg/mL streptomycin at 37° C. with 5% CO2. At 85% confluency, cells were split with 0.25% trypsin/1 mM EDTA and plated at 10% confluency on glass coverslips. At 12 hours, the medium was replaced, and the cells stably transfected using a standard calcium phosphate protocol and the appropriate calcium channel cDNA's. Fresh DMEM was supplied, and the cells transferred to 28° C./5% CO2. Cells were incubated for 1 to 2 days prior to whole cell recording.
(§2) Standard patch-clamp techniques were employed to identify blockers of T-type currents. Briefly, previously described HEK cell lines stably expressing human α1G, α1H and α1I T-type channels were used for all the recordings (passage #: 4-20, 37° C., 5% CO2). Whole cell patch clamp experiments were performed using an Axopatch 200B amplifier (Axon Instruments, Burlingame, Calif.) linked to a personal computer equipped with pCLAMP software. Data were analyzed using Clampfit (Axon Instruments) and SigmaPlot 4.0 (Jandel Scientific). To obtain T-type currents, plastic dishes containing semi-confluent cells were positioned on the stage of a ZEISS AXIOVERT S100 microscope after replacing the culture medium with external solution (Table 2). Whole-cell patches were obtained using pipettes (borosilicate glass with filament, O.D.: 1.5 mm, I.D.: 0.86 mm, 10 cm length), fabricated on a SUTTER P-97 puller with resistance values of ˜5 MΩ (Table 3).
(§3) T-type currents were reliably obtained by using two voltage protocols:
(§4) In the non-inactivating protocol, the holding potential is set at −110 mV and with a pre-pulse at −100 mV for 1 second prior to the test pulse at −40 mV for 50 ms. In the inactivation protocol, the pre-pulse is at approximately −85 mV for 1 second, which inactivates about 15% of the T-type channels (Scheme 1).
(§5) Test compounds were dissolved in external solution, 0.1-0.01% DMSO. After ˜10 minutes rest, they were applied by gravity close to the cell using a WPI microfil tubing. The “non-inactivated” pre-pulse was used to examine the resting block of a compound. The “inactivated” protocol was employed to study voltage-dependent block. However, the initial data shown below were mainly obtained using the non-inactivated protocol only. IC50 values are shown for various compounds of the invention in Table 4. […] In Table 4, empty cells indicate that inhibition by the compound was not detected.
For orientation: The patch-clamp technique gives a direct electrical read-out from membranes.

A further experiment addresses T2, α1H (CaV 3.2) (Homo sapiens, UniProt O95180).
T2 construct: expressed in transfected cells; host or cells: HEK 293
Described as above. The note with it: HEK cells, mainly non-inactivated protocol; values above 10,000 nM represented as 10000. Type of experiment: cell-based. As for the experimental part:
as §1, §2, §3, §4, §5

T2 sequence (O95180 whole entry): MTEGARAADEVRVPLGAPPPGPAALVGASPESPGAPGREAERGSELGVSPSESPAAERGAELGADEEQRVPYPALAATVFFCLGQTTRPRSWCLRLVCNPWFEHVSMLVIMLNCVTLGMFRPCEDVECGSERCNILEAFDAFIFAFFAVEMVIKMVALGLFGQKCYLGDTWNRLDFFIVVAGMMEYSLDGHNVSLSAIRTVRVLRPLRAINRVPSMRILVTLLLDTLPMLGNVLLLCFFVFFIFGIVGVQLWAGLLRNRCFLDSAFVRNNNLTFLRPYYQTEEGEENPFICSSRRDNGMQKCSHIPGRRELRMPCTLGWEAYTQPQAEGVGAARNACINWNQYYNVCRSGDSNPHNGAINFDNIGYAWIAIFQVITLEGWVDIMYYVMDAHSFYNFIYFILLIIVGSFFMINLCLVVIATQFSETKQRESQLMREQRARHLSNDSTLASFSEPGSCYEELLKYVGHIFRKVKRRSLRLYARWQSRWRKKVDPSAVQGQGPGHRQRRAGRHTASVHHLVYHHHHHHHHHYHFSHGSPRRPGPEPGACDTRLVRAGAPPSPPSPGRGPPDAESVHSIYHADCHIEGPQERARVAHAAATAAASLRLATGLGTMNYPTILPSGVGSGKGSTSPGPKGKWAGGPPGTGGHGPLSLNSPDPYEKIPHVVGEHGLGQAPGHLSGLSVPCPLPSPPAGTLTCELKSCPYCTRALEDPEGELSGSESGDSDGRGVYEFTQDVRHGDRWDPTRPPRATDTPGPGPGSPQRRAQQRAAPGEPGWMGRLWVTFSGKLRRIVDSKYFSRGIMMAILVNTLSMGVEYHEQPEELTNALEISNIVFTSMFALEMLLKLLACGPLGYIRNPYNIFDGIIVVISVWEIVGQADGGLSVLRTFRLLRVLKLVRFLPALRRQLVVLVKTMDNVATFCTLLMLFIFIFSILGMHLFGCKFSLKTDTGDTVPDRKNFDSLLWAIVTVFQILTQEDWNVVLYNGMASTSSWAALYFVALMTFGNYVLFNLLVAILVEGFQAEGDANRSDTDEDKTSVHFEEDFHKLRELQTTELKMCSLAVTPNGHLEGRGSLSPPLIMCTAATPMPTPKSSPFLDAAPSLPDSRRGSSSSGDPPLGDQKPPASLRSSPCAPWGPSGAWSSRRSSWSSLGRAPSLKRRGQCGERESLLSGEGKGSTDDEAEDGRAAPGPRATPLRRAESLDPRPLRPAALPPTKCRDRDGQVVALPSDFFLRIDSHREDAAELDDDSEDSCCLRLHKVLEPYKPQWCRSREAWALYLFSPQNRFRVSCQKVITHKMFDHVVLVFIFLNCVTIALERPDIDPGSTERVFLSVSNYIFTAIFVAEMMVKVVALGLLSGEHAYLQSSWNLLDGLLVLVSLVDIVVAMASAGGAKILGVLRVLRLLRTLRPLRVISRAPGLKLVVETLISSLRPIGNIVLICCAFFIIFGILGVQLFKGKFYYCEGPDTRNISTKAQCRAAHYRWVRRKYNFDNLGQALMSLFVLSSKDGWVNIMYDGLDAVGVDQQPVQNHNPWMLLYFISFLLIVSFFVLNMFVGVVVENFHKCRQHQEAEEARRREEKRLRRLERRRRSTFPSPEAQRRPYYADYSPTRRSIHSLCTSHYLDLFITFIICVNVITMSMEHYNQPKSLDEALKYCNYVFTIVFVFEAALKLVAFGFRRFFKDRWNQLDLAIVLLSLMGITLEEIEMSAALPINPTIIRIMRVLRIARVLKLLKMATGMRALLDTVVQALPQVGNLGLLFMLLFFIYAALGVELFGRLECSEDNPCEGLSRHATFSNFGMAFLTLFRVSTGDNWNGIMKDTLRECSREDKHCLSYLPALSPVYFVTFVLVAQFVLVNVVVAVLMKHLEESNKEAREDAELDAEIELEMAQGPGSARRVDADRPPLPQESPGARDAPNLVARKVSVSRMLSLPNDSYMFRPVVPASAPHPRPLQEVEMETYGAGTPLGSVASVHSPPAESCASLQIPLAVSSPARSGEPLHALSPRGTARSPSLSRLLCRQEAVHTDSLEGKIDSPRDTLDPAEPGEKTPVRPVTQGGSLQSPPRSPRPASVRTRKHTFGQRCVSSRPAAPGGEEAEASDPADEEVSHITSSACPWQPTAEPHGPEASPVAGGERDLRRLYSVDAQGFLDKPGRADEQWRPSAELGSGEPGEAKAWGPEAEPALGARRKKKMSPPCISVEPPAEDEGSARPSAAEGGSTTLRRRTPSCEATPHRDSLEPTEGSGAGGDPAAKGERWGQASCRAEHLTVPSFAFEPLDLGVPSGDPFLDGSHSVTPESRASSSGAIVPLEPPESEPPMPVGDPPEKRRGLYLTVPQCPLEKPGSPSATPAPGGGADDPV
T1 sequence (O43497 whole entry): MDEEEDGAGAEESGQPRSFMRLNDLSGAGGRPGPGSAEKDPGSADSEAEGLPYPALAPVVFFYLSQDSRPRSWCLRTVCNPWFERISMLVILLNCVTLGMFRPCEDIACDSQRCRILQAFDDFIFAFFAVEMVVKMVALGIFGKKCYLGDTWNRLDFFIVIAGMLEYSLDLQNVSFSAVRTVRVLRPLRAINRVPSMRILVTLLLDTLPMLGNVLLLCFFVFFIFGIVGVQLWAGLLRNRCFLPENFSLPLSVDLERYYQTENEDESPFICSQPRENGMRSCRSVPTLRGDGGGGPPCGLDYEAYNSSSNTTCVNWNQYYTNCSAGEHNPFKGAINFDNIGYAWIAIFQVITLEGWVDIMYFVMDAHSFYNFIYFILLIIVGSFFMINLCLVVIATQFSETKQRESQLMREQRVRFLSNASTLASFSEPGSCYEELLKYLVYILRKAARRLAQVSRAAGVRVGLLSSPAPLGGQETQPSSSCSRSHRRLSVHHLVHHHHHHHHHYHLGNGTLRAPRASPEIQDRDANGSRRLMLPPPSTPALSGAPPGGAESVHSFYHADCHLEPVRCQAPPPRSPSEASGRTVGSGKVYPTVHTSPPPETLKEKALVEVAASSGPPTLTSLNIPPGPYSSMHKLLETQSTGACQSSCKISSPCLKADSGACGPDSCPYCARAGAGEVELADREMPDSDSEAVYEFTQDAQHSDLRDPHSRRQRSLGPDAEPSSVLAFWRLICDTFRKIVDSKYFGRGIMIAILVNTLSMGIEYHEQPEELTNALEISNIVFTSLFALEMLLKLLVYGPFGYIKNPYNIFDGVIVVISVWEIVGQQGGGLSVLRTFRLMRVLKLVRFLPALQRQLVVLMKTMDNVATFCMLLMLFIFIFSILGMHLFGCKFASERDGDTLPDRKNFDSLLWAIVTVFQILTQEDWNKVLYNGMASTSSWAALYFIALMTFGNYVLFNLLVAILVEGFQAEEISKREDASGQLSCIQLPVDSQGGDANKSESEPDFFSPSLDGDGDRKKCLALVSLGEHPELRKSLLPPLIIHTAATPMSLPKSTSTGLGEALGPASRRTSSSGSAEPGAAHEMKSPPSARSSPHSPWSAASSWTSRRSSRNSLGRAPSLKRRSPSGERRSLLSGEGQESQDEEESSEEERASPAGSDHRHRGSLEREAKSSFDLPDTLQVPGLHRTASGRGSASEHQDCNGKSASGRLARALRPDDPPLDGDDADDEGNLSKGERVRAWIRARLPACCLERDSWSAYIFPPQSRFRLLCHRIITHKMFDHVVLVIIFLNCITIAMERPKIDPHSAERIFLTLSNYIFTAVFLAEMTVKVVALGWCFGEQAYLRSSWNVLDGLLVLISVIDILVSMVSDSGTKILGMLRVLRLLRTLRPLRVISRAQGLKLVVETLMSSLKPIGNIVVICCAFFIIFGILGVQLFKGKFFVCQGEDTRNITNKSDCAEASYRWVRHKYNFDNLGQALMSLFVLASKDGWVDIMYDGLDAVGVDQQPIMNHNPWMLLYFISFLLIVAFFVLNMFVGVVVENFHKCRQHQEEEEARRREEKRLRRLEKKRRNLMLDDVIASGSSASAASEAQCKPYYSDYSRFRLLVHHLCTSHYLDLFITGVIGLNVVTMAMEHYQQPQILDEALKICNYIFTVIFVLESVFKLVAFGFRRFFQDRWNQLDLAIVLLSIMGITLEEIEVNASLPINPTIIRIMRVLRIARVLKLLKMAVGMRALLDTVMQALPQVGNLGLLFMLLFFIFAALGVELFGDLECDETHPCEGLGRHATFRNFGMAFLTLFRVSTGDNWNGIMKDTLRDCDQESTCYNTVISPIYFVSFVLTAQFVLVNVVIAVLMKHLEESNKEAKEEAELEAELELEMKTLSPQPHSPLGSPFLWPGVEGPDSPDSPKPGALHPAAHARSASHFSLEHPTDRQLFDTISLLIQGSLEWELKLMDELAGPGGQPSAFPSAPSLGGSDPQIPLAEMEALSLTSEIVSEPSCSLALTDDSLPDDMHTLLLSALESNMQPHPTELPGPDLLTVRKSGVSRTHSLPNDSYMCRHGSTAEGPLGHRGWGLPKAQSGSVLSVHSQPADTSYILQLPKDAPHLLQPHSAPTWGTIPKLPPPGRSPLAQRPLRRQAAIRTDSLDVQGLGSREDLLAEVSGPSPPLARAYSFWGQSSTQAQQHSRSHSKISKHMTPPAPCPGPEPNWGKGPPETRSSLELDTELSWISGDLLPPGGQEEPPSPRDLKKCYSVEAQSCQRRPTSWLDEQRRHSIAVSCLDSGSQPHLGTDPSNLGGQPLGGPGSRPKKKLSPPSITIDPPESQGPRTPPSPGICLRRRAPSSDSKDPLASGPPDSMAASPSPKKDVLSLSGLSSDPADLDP

The IC50 is the concentration at which inhibition is half-maximal. As to `N[C@@H]1CCCC[C@H]1C(=O)N1CCC(CC(=O)Nc2cc(C(F)(F)F)cc(C(F)(F)F)c2)C1` (stereo partly drawn) [Compound 32, 2-(1-((1R,2R)-2-aminocyclohexanecarbonyl)pyrrolidin-3-yl)-N-(3,5-bis(trifluoromethyl)phenyl)acetamide], the IC50 came to 5.66 µM on α1G (CaV 3.1) and 630 nM at α1H (CaV 3.2).
On the same counts, the results for `N[C@@H]1CCCC[C@@H]1C(=O)N1CCC(CC(=O)Nc2cc(C(F)(F)F)cc(C(F)(F)F)c2)C1` (stereo partly drawn) [Compound 31, 2-(1-((1S,2R)-2-aminocyclohexanecarbonyl)pyrrolidin-3-yl)-N-(3,5-bis(trifluoromethyl)phenyl)acetamide] are 6.19 µM and 460 nM.
The matching figures for `N[C@H]1CCCC[C@@H]1C(=O)N1CCC(CC(=O)Nc2cc(Br)cc(C(F)(F)F)c2)CC1` (racemic) [Compound 19, trans-2-(1-(2-aminocyclohexanecarbonyl)piperidin-4-yl)-N-(3-bromo-5-(trifluoromethyl)phenyl)acetamide]: greater than 10 µM and 280 nM.
On the same counts, the results for `O=C(CC1CCN(C(=O)C2CCCCN2)C1)Nc1cc(C(F)(F)F)cc(C(F)(F)F)c1` (centres unmarked) [Compound 29, N-(3,5-bis(trifluoromethyl)phenyl)-2-(1-(piperidine-2-carbonyl)pyrrolidin-3-yl)acetamide] are 7.02 µM and 570 nM.
Take `N[C@@H]1CCCC[C@H]1C(=O)N1CCC(CC(=O)Nc2cc(C(F)(F)F)cc(C(F)(F)F)c2)CC1` [Compound 6, 2-(1-((1R,2R)-2-aminocyclohexanecarbonyl)piperidin-4-yl)-N-(3,5-bis(trifluoromethyl)phenyl)acetamide]: the figures for the IC50 on α1G (CaV 3.1) and on α1H (CaV 3.2) were greater than 10 µM and 250 nM, respectively.
The matching figures for `N[C@H]1CCCC[C@H]1C(=O)N1CC(CC(=O)Nc2cc(C(F)(F)F)cc(C(F)(F)F)c2)C1` (racemic) [Compound 41, cis-2-(1-(2-aminocyclohexanecarbonyl)azetidin-3-yl)-N-(3,5-bis(trifluoromethyl)phenyl)acetamide]: greater than 10 µM and 850 nM.
The matching figures for `CC(C)(CN)C(=O)N1CC(CC(=O)Nc2cc(C(F)(F)F)cc(C(F)(F)F)c2)C1` [Compound 46, 2-(1-(3-amino-2,2-dimethylpropanoyl)azetidin-3-yl)-N-(3,5-bis(trifluoromethyl)phenyl)acetamide]: greater than 10 µM and greater than 10000 nM.
The matching figures for `CC(C)(N)CC(=O)N1CCC(CC(=O)Nc2cc(C(F)(F)F)cc(C(F)(F)F)c2)CC1` [Compound 42, 2-(1-(3-amino-3-methylbutanoyl)piperidin-4-yl)-N-(3,5-bis(trifluoromethyl)phenyl)acetamide]: greater than 10 µM and 570 nM.
Take `N[C@H]1CCCC[C@@H]1C(=O)N1CCC(CC(=O)Nc2ccc(Br)c(C(F)(F)F)c2)CC1` (racemic) [Compound 20, trans-2-(1-(2-aminocyclohexanecarbonyl)piperidin-4-yl)-N-(4-bromo-3-(trifluoromethyl)phenyl)acetamide]: the IC50 at α1G (CaV 3.1) is greater than 10 µM; at α1H (CaV 3.2) it was 920 nM.
As for `N[C@@H]1CCCC[C@H]1C(=O)N1CC(CC(=O)Nc2cc(C(F)(F)F)cc(C(F)(F)F)c2)C1` (racemic) [Compound 40, trans-2-(1-(2-aminocyclohexanecarbonyl)azetidin-3-yl)-N-(3,5-bis(trifluoromethyl)phenyl)acetamide], the IC50 is greater than 10 µM at α1G (CaV 3.1) and 830 nM on α1H (CaV 3.2).
Consider `N[C@@H]1CCCC[C@H]1C(=O)N1CCC(CNC(=O)c2cc(C(F)(F)F)cc(C(F)(F)F)c2)CC1` (racemic) [Compound 48], for which the IC50 was greater than 10 µM at α1G (CaV 3.1) and 1850 nM on α1H (CaV 3.2).
The matching figures for `N[C@H]1CCCC[C@H]1C(=O)N1CCC(CC(=O)Nc2cc(C(F)(F)F)cc(C(F)(F)F)c2)C1` (stereo partly drawn) [Compound 30, 2-(1-((1R,2S)-2-aminocyclohexanecarbonyl)pyrrolidin-3-yl)-N-(3,5-bis(trifluoromethyl)phenyl)acetamide]: 8.95 µM and 710 nM.
For the compound `CN1CCCCC1C(=O)N1CC(CC(=O)Nc2cc(C(F)(F)F)cc(C(F)(F)F)c2)C1` (centres unmarked) [Compound 37, N-(3,5-bis(trifluoromethyl)phenyl)-2-(1-(1-methylpiperidine-2-carbonyl)azetidin-3-yl)acetamide], the IC50 on α1G (CaV 3.1) was greater than 10 µM; at α1H (CaV 3.2), 4390 nM.
On the same counts, the results for `CC(C)(N)CC(=O)N1CC(CC(=O)Nc2cc(C(F)(F)F)cc(C(F)(F)F)c2)C1` [Compound 43, 2-(1-(3-amino-3-methylbutanoyl)azetidin-3-yl)-N-(3,5-bis(trifluoromethyl)phenyl)acetamide] are greater than 10 µM and greater than 10000 nM.
The matching figures for `CN1CCCC(C(=O)N2CC(CC(=O)Nc3cc(C(F)(F)F)cc(C(F)(F)F)c3)C2)C1` (centres unmarked) [Compound 38, N-(3,5-bis(trifluoromethyl)phenyl)-2-(1-(1-methylpiperidine-3-carbonyl)azetidin-3-yl)acetamide]: greater than 10 µM and 8040 nM.
As for `CN1CCCC(C(=O)N2CCC(CC(=O)Nc3cc(C(F)(F)F)cc(C(F)(F)F)c3)CC2)C1` (centres unmarked) [Compound 1, N-(3,5-bis(trifluoromethyl)phenyl)-2-(1-(1-methylpiperidine-3-carbonyl)piperidin-4-yl)acetamide], the IC50 on α1G (CaV 3.1) was greater than 10 µM; at α1H (CaV 3.2), 510 nM.
On the same counts, the results for `CN1CCCC(C(=O)N2CCC(CC(=O)Nc3cc(C(F)(F)F)cc(C(F)(F)F)c3)C2)C1` (centres unmarked) [Compound 36, N-(3,5-bis(trifluoromethyl)phenyl)-2-(1-(1-methylpiperidine-3-carbonyl)pyrrolidin-3-yl)acetamide] are 8.1 µM and 2440 nM.
The matching figures for `O=C(CC1CN(C(=O)C2CCCCN2)C1)Nc1cc(C(F)(F)F)cc(C(F)(F)F)c1` (centres unmarked) [Compound 39, N-(3,5-bis(trifluoromethyl)phenyl)-2-(1-(piperidine-2-carbonyl)azetidin-3-yl)acetamide]: greater than 10 µM and 1210 nM.
The matching figures for `CC(C)(N)CC(=O)N1CCC(CC(=O)Nc2cc(C(F)(F)F)cc(C(F)(F)F)c2)C1` (centres unmarked) [Compound 44, 2-(1-(3-amino-3-methylbutanoyl)pyrrolidin-3-yl)-N-(3,5-bis(trifluoromethyl)phenyl)acetamide]: greater than 10 µM and 2100 nM.
For the compound `NC1(C(=O)N2CCC(CC(=O)Nc3cc(C(F)(F)F)cc(C(F)(F)F)c3)CC2)CCCCC1` [Compound 9, 2-(1-(1-aminocyclohexanecarbonyl)piperidin-4-yl)-N-(3,5-bis(trifluoromethyl)phenyl)acetamide], the IC50 stood at 4.68 µM on α1G (CaV 3.1) and 990 nM at α1H (CaV 3.2).
On the same counts, the results for `N[C@H]1CCCC[C@@H]1C(=O)N1CCC(CC(=O)Nc2cccc(C(F)(F)F)c2)CC1` (racemic) [Compound 13, trans-2-(1-(2-aminocyclohexanecarbonyl)piperidin-4-yl)-N-(3-(trifluoromethyl)phenyl)acetamide] are greater than 10 µM and 2670 nM.
Take `CC(C)(CN)C(=O)N1CCC(CC(=O)Nc2cc(C(F)(F)F)cc(C(F)(F)F)c2)C1` (centres unmarked) [Compound 47, 2-(1-(3-amino-2,2-dimethylpropanoyl)pyrrolidin-3-yl)-N-(3,5-bis(trifluoromethyl)phenyl)acetamide]: the IC50 on α1G (CaV 3.1) was greater than 10 µM; at α1H (CaV 3.2) it was 3370 nM.
